From patent publication US20140296137A1, “METHODS AND COMPOSITIONS FOR CONTROLLING ROTIFERS” (Los Alamos National Security, LLC, priority 2013, published 2014)
Ends that are not written are not given here.

Assays:
[1] = tested on: Chlorella protothecoides; details: 5-6 days, room temperature, 96-well, algae colour under 20× microscope; ND = AMP killed all the algae
Procedure: (§1) This example provides the minimal inhibitory concentration (MIC) of antimicrobial peptides (AMPs) for algae. […] Therefore, the tolerance of algae to the AMPs listed in Table 2 of Example 1 was measured.
(§2) Briefly, the algae viability assay used herein measured the “health” of the algae cultures by looking at the color of the algae. […] A visual assay was used to determine the MIC for the individual AMPs on the algae. In each case, a light microscope with 20× magnification was used to observe algae color.
(§3) The effect of insecticidal and non-insecticidal AMPs on three different algae species was measured. The three algae species were Auxenochlorella protothecoides, Chlorella sorokiniana and Chlamydomonas reinhardtii.
(§4) Algae cultures were initiated in 96-well plates at an OD 750 of approximately 0.1. […] The antibiotics hygromycin and paromycin served as positive controls for inhibiting and/or reducing the growth rate of algae. […] The algae cultures were monitored by preparing microscopy slides with a small sample taken from the individual wells. The algae slides were then visualized under a 20× magnification microscope for algae viability as measured by algae color.

[2] = tested on: Chlamydomonas reinhardtii; details: 5-6 days, room temperature, 96-well, algae colour under 20× microscope; ND = AMP killed all the algae
Procedure: as §1, §2, §3, §4

[3] = tested on: Chlorella sorokiniana; details: 5-6 days, room temperature, 96-well, algae colour under 20× microscope; ND = AMP killed all the algae
Procedure: as §1, §2, §3, §4

[4] = tested on: three rotifer species; test: Rotifer visual motility assay, summary statements over the three rotifer species; format: in vivo, Adineta vaga, Philodina acuticornis and Brachionus; details: AMP 0.5 mg/mL
Description: Briefly, the rotifer motility assay used herein in the presence of a biocontrol agent (e.g., AMP) may be used as a measure of relative rotifer viability and competency. Rotifer diet, of which algae is considered to be an important food source, is one of the key environmental factors that impact the growth and multiplication of rotifers. In effect, the inability of a rotifer to be mobile (i.e., inability to swim toward a food source and/or to have mobile cilia that help trap food) prevents the rotifer from ingesting sufficient nutrients to further grow and reproduce. Thus, any approach that reduces and/or inhibits rotifer motility has a significant impact on an individual rotifer and therefore rotifer populations. With respect to algae cultures, reducing and/or inhibiting rotifer motility prevents and/or reduces any negative impact rotifers have on algae cultures (e.g., open pond systems for algae biomass and biofuel production). […]
The effect of the insecticidal and non-insecticidal AMPs of Table 2 (Example 1) on three different rotifer species was measured. […]
Rotifer cultures were initiated in 12-well or 24-well plates at a density of approximately 100-200 rotifers/mL. […] The rotifer cultures were monitored by preparing microscopy slides with a small sample taken from the individual wells. […]

[5] = tested on: three algae species; test: Algae viability assay, summary statements over the three algae species; format: cell-based; details: comparison of Tables 3 and 4 with Tables 5 and 6
Procedure: as §1, §2, §3
Algae cultures were initiated in 96-well plates at an OD 750 of approximately 0.1. […] The antibiotics hygromycin and paromycin served as positive controls for inhibiting and/or reducing the growth rate of algae. Algae cultured in water or media served as a negative control (i.e., no effect on growth). The algae cultures were monitored by preparing microscopy slides with a small sample taken from the individual wells. The algae slides were then visualized under a 20× magnification microscope for algae viability as measured by algae color. […]

[6] = tested on: Philodina acuticornis; format: in vivo; set-up: key to the marks not given beside the values; details: AMP 0.5 mg/mL, 24 hr time point, room temperature, visual motility score
Description: (§5) Briefly, the rotifer motility assay used herein in the presence of a biocontrol agent (e.g., AMP) may be used as a measure of relative rotifer viability and competency. Rotifer diet, of which algae is considered to be an important food source, is one of the key environmental factors that impact the growth and multiplication of rotifers. In effect, the inability of a rotifer to be mobile (i.e., inability to swim toward a food source and/or to have mobile cilia that help trap food) prevents the rotifer from ingesting sufficient nutrients to further grow and reproduce. Thus, any approach that reduces and/or inhibits rotifer motility has a significant impact on an individual rotifer and therefore rotifer populations. With respect to algae cultures, reducing and/or inhibiting rotifer motility prevents and/or reduces any negative impact rotifers have on algae cultures (e.g., open pond systems for algae biomass and biofuel production). In other words, reducing and/or inhibiting rotifer motility reduces and/or prevents rotifers (e.g., infestations) from ingesting and consequently damaging algae cultures use in biofuel production.
(§6) The effect of the insecticidal and non-insecticidal AMPs of Table 2 (Example 1) on three different rotifer species was measured. The three rotifer species were Adineta vaga and Philodina acuticornis (class Bdelloid rotifers), and Brachionus (Monogononta class). A visual motility assay was used to determine the impact of the individual AMPs on rotifer viability. In each case, a light microscope with 20× magnification was used to observe rotifer motility (activity). […] FIGS. 1A, 1C and 1E show a 20× magnification of Adineta vaga, Philodina acuticornis and Brachionus (untreated), respectively. FIGS. 1B, 1D and 1F show a 20× magnification of Adineta vaga, Philodina acuticornis and Brachionus (AMP treated), respectively.
(§7) Rotifer cultures were initiated in 12-well or 24-well plates at a density of approximately 100-200 rotifers/mL. The 12-well plates contained a volume of 1 mL per well, and the 24-well plates contained a volume of about 0.25 mL to about 0.35 mL per well. Individual rotifer cultures (individual wells) were incubated with a select AMP at a concentration of 0.5 mg/mL (or a range of about 78 μM to about 365 μM) for 18, 21 and 24 hours at room temperature. The rotifer cultures were monitored by preparing microscopy slides with a small sample taken from the individual wells. The slides were then visualized under a 20× magnification microscope for rotifer motility. […] The scoring system was based on observing a subset of the rotifer population from each well. The impact on the subset of rotifers observed served as a representative of the impact on the entire rotifer population for that particular AMP treatment.
(§8) A summary of the motility assay (or “Kill Assay”) for each insecticidal and non-insecticidal AMP incubated with the three different rotifer species for the 24 hour time point is provided below in Table 5 (insecticidal AMPs) and Table 6 (non-insecticidal AMPs). The 18 and 21 hour time points gave similar results to the 24 hour time point.

[7] = tested on: Adineta vaga; format: in vivo; set-up: key to the marks not given beside the values; details: AMP 0.5 mg/mL, 24 hr time point, room temperature, visual motility score
Description: as §5, §6, §7, §8

[8] = tested on: Brachionus; format: in vivo; details: AMP 0.5 mg/mL, 24 hr time point, room temperature, visual motility score
Description: as §5, §6, §7, §8

FIGTALGIASAIPAIVKLFK [Ponericin W6]
Minimal Inhibitory Concentration (MIC) Chlorella protothecoides [1]: No Affect | Minimal Inhibitory Concentration (MIC) Chlamydomonas reinhardtii [2]: 61.6 µM | Minimal Inhibitory Concentration (MIC) Chlorella sorokiana [3]: 492.5 µM | negative impact on rotifer motility (in words) [4]: high negative impact | tolerance of algae to the AMP (in words) [5]: highly tolerated by algae | “Kill” Efficiency Philodina [6]: ++ | “Kill” Efficiency Adineta vaga [7]: ++ | “Kill” Efficiency Brachionus [8]: +++

FLPLIGKVLSGIL [Temporin F, Temporin-F]
Minimal Inhibitory Concentration (MIC) Chlorella protothecoides [1]: 365 µM | Minimal Inhibitory Concentration (MIC) Chlamydomonas reinhardtii [2]: 91.3 µM | Minimal Inhibitory Concentration (MIC) Chlorella sorokiana [3]: 730.7 µM | negative impact on rotifer motility (in words) [4]: high negative impact | tolerance of algae to the AMP (in words) [5]: highly tolerated by algae
